Reference: patent US20250161338A1, “Compounds for Anti-aging Intervention” (AGENCY FOR SCIENCE, TECHNOLOGY AND RESEARCH, priority 2022, published 2025)

Key:
[1] = test system: CEN.PK113-7D snflΔ deletion strain; experiment: Growth sensitivity of SNFl gene deletion strain; format: cell-based, Saccharomyces cerevisiae; conditions: different concentrations; compared to wild-type strain
From the text: The prototrophic wild-type Saccharomyces cerevisiae CEN.PK113-7D yeast strain genetic background (Euroscarf, Köhlerweg, Oberursel, Germany), and the Saccharomyces cerevisiae BY4743 strain (Euroscarf, Köhlerweg, Oberursel, Germany) were used. The CEN.PK113-7D snflΔ deletion strain was constructed. The standard rich Yeast-Extract Peptone Dextrose (YPD) medium (1% w/v Bacto yeast extract, 2% w/v Bacto peptone, and 2% w/v glucose) (BD, Franklin Lakes, New Jersey, United States of America), YPD agar (2.5% w/v Bacto agar) (BD, Franklin Lakes, New Jersey, United States of America), and synthetic defined (SD) medium (BD, Franklin Lakes, New Jersey, United States of America) used here contained 6.7 g/L Difco™ Yeast Nitrogen Base (without amino acids and with ammonium sulfate) (BD, Franklin Lakes, New Jersey, United States) and 2% w/v glucose. Rapamycin (Enzo Life Sciences, Farmingdale, New York, United States) stock solution was prepared in dimethyl sulfoxide (DMSO) (Sigma-Aldrich, St. Louis, Missouri, United States of America). […]

[2] = test system: HEK293 cells; experiment: CLS in human cells, propidium iodide fluorescence-based method (HEK293); format: cell-based; conditions: sixth day after seeding
Description: Human embryonic kidney 293 (HEK293) cells (ATCC, Manassas, Virginia, United States of America), lung epithelial (A549) cells (ATCC, Manassas, Virginia, United States of America) and fibroblast (IMR90) cells (ATCC, Manassas, Virginia, United States of America) were cultured in the standard D10 medium, consisting of high-glucose DMEM (HyClone, Cytiva, Marlborough, Massachusetts, USA) supplemented with 10% Fetal Bovine Serum (FBS) (Gibco™, ThermoFisher Scientific, Waltham, Massachusetts, USA) and 1% Penicillin Streptomycin Solution (Gibco™, ThermoFisher Scientific, Waltham, Massachusetts, USA). All cells were cultured in a humidified incubator with 5% CO2 at 37° C.
The stock solution of rapamycin, hemin, 5-fluorouracil, atorvastatin, and methotrexate was prepared in DMSO, followed by serial dilution to form various concentrations used in the experiment. The final DMSO concentration was kept at 0.05% in all experiments. The stock solution of 2,5-anhydro-D-mannitol was prepared in D10 medium. The chemical library used in screening were tested at 1 μM concentrations. Controls used were the same as the solvent applied, DMSO or water.
The assay was performed by preparing the cells with PI (2 μg/mL or 5 μg/mL) in a D10 medium. […] At different age time points, reading was taken with a Synergy MX microplate reader (BioTek, Winooski, Vermont, United States) at 535 nm excitation and 617 nm emission.

In the case of `OC[C@H]1O[C@H](CO)[C@@H](O)[C@@H]1O` [2,5-AM, 2,5-anhydro-D-mannitol], the “growth of snflΔ deletion strain” value [1] is reported as “inhibited the growth of snflΔ deletion strain compared to wild-type strain”, the “more live cells compared to the untreated group” value ([2]; 2.5 mM) is reported as 34.39% and the “more live cells compared to the untreated group” value ([2]; 5 mM) is reported as 58.7%.
